Assay results as given in article PMC12040169 (PLOS Biology, 2025).

assay: in vitro; details: human, hela cells, % viability

SMILES | viability at 28.5 h, 10 µM [%]
CCOc1ncccc1C(=O)OCc1cc2ccc(OC)cc2nc1Cl [CBK295289] | 78.1
COc1cc2c(cc1OC)C(c1ccc(C(=O)O)cc1)NCC2 (stereo not drawn) [CBK286738] | 90.2
Cc1nn(C(C)CC(=O)NCCN2CCC(C)CC2)c(C)c1Cl (stereo not drawn) [CBK281558] | 90.2
CCn1c(C)cc(C(=O)CSc2nnc(N3CCCC3)n2C2CC2)c1C [CBK306035] | 85.5
CCOC(=O)c1c(NC(=O)CSc2n[nH]c(N)n2)sc(C)c1C [CBK266412] | 94.4
Cc1c(C(=O)N2CCC(C(=O)c3cccnc3)CC2)oc2ccccc12 [CBK283954] | 88.9
C[C@@H]1CN(C(=O)OCc2ncc(F)cc2F)C[C@H](C)O1 [CBK200286] | 103
O=C(c1ccccc1F)N1CC2CCCC(C1)C2N1CCOCC1 (stereo not drawn) [CBK285262] | 79.9
Cc1cc(C)n(-c2nc3cc(Cl)ccc3nc2Nc2ccc3c(c2)OCO3)n1 [CBK268380] | 91.9
COc1cccc(/C=N/c2cc(S(=O)(=O)c3ccc(O)c(/N=C/c4cccc(OC)c4O)c3)ccc2O)c1O [CBK261225] | 92.4
CCN(CC)C(=O)c1sc(NC(=O)c2cc(-c3ccncc3)nc3c(C)cccc23)c(C#N)c1C [CBK267771] | 93.6
CC(=O)NC(=O)c1cccc(Br)c1 [CBK022890] | 99.3
Cc1ccc(S(=O)(=O)N2CC=CCC2)cc1 [CBK058443] | 89
CCn1cc(C(=O)O)c(=O)c2cc(F)c(N3CCN(C(=S)Nc4cc(OC)ccc4OC)CC3)cc21 [CBK265831] | 85.7
CCCC(=O)c1ccc2c(c1)CC(N(CCC)CCC)C2 (stereo not drawn) [CBK023971C] | 95.1
O=C(Cc1ccccc1)Nc1nc(OCC(F)(F)F)cnc1-c1ccsc1 [CBK145298] | 102
O=C(O)CNC(=O)/C(=C\c1ccccc1F)NC(=O)c1ccccc1 [CBK263961] | 96.5
NS(=O)(=O)c1ccc(CCNC(=O)c2ccc(C#CC3(O)CCCCC3)cc2)cc1 [CBK263104] | 93.9
Nn1c(SCC(=O)Nc2ccc3c(c2)OCCO3)nnc1-c1ccccn1 [CBK267551] | 87.4
Cc1c(C(C)NCCc2nnc[nH]2)cnn1-c1ccc(C#N)cc1 (stereo not drawn) [CBK304063] | 98.1
CC(=O)N1CCC(C(=O)NC(=O)NCCOc2ccccc2Cl)CC1 [CBK034842] | 97.9
COc1ccc(OC)c(C(O)CN2CCCC(C(=O)N3CCCCCC3)C2)c1 (stereo not drawn) [CBK286286] | 87.5

SMILES | viability at 28.5 h, 10 µM [%]
COc1ccc(CCN[C@H]2CCC[C@@H]2O)cc1OC [CBK005354G] | 78.4
CCCC12CN3CC(CCC)(CN(C1)C3c1ccc(O)c(OC)c1)C2=O (stereo not drawn) [CBK265531] | 89
COc1ccccc1C(=O)N1CCC(Cc2cccc(-c3cccs3)c2)(C(N)=O)CC1 [CBK285742] | 99.8
CN1CCN(c2nc(NCCNc3ccc([N+](=O)[O-])cc3)c3ccccc3n2)CC1 [CBK266949] | 77.5
Brc1ccc(CN2CCN(Cc3c[nH]c4ccccc34)CC2)cc1 [CBK027622] | 85.4
CC(=O)NC[C@H]1CN(c2ccc(C3=CC[S+]([O-])CC3)c(F)c2)C(=O)O1 (stereo partly drawn) [CBK017555] | 92.5
COc1ccc([N+](=O)[O-])cc1CSc1nnc(COc2ccccc2C)n1C [CBK265820] | 93
COCCn1cnnc1CN(C)C(=O)NC(C)c1nc2ccccc2[nH]1 (stereo not drawn) [CBK307155] | 99.6
COC(=O)c1ccccc1NC(=O)CNC(=O)c1ccccc1Cl [CBK269113] | 88.8
c1csc(CNCCCN2CCOCC2)c1 [CBK278305C] | 91.1
COc1cc2oc(=O)c(CC(=O)N3CCCC(C(=O)O)C3)c(C)c2cc1Cl (stereo not drawn) [CBK286754] | 107
O=C(CSc1nnc(-c2ccncc2)n1Cc1ccccc1)Nc1ccc(Cl)cc1 [CBK269346] | 97.3
COc1ccc(S(=O)(=O)N2CCC(C(=O)N(C)C(c3cnccn3)c3ccccc3C)CC2)cc1 (stereo not drawn) [CBK060210] | 99.3
Cc1nc(CC(=O)NCc2cccnc2N2CCOCC2)cs1 [CBK304331] | 98.7
CCCCn1c(SCC(=O)c2cc(C)n(CCc3ccc(OC)cc3)c2C)n[nH]c1=O [CBK295351] | 96.1
CCc1cnc(CN(C)C2CCN(CC(=O)NCc3ccco3)C2)o1 (stereo not drawn) [CBK306137] | 94.8
CC(=O)C(C(=O)Nc1ccc(F)cc1)C(c1cccc2ccccc12)C(C#N)C#N (stereo not drawn) [CBK262081] | 90.4
O=C(O)c1ccccc1C1Nc2ccccc2S(=O)(=O)N1Cc1ccccc1 (stereo not drawn) [CBK286587] | 107
COc1ccc(/C=C2\S/C(=N/N=C/c3ccc(OC)cc3)N(c3ccc(O)cc3)C2=O)cc1 [CBK262780] | 87.7
OCCCNc1cc(Nc2ccccc2)n2nccc2n1 [CBK037078] | 102
CC(C)c1cccc(-n2cc(O)c(C(=O)NCCCn3cccn3)n2)c1 [CBK305360] | 113
O=C(C1CCCN(c2nc3c(-c4ccccc4)csc3c(=O)[nH]2)C1)N1CCOCC1 (stereo not drawn) [CBK215582] | 83.7

SMILES | viability at 28.5 h, 10 µM [%]
Cn1ncc(N2CCC(CNC(=O)COc3cccc(F)c3)C2)cc1=O (stereo not drawn) [CBK307692] | 87.1
Cc1ccc(OCCNC(=O)NC(=O)C2CCN(C)CC2)c2c1CCC2 [CBK034824] | 115
CCn1c2ccccc2c2cc(CN3CCN(Cc4c[nH]c5ccccc45)CC3)ccc21 [CBK263167] | 89.3
N#C/C(=C\c1ccc(C(=O)O)cc1)C(=O)NCC1CCCO1 (stereo not drawn) [CBK263228] | 95
COc1cccc(NC(=O)CN(c2cccc(C(C)=O)c2)S(C)(=O)=O)c1 [CBK267502] | 111
COc1ccccc1NC(=O)N1C[C@@H]2C[C@H](C1)c1c(-c3ccccc3F)ccc(=O)n1C2 [CBK289192] | 92.7
CCN(Cc1c[nH]nc1-c1ccc(OC)cc1F)CC1CCCO1 (stereo not drawn) [CBK307350] | 102
CC(=O)NCC1CC(=O)N(c2ccc(Br)cc2)C1 (stereo not drawn) [CBK008134] | 109
CC(C)NC(=O)NC(=O)C1CCN(CCOc2ccc(Cl)cc2Cl)CC1 [CBK034949] | 106
CC(=O)NC[C@@H]1C=C(C)[C@H](CC(=O)Nc2ccccn2)C[C@H]1C(C)C [CBK289209] | 92.3
CN(C)C(=O)Cc1ccc(-c2ccccc2)cc1 [CBK012162] | 94.2
CC(C)c1n[nH]c(C2CN(Cc3nc4c(F)cccc4[nH]3)CCO2)n1 (stereo not drawn) [CBK305225] | 98.8
Cn1ccnc1C(NC(=O)N1CCOCC1)c1ccc(F)c(F)c1 (stereo not drawn) [CBK283781] | 87.4
O=C(CN(c1ccc(I)cc1)S(=O)(=O)c1ccccc1)NCC1CCCO1 (stereo not drawn) [CBK266278] | 101
O=C(O)c1cc(S(=O)(=O)NC(CO)C(O)c2ccc([N+](=O)[O-])cc2)ccc1Br (stereo not drawn) [CBK262515] | 104
O=[N+]([O-])c1ccc(N2CCN(CCO)CC2)cc1NCc1ccccc1 [CBK042200] | 99.9
C=CCOc1nc2c(=O)[nH]c(NC(=O)C(C)C)nc2n1[C@H]1C[C@@H](O)[C@@H](CO)O1 [CBK201216] | 100
O=C(NC1CCCCC1)c1cc(Br)cnc1NCCCn1ccnc1 [CBK076494] | 99.7
CCc1ccc(CNC(=O)Cn2nnc(-c3ccc(CNC4CCC4)cc3)n2)cc1 [CBK155006T] | 111
CC(=O)c1cn(CCC(=O)NC2CCCOC2)c2ccccc12 (stereo not drawn) [CBK282515] | 114
Cc1cc(COC(=O)Nc2ccc(Cl)cc2)no1 [CBK086560] | 93.4
CCC(=O)Oc1ccc(/N=C2/NC(C)(C)O2)cc1 [CBK010922] | 87.6

SMILES | viability at 28.5 h, 10 µM [%]
Cc1ccccc1OCc1nnc(SCc2c(Cl)cccc2[N+](=O)[O-])n1C [CBK265846] | 92.4
Sc1nnc(-c2ccncc2)n1CCc1ccccc1 [CBK265819] | 108
CCOc1ccc2ccccc2c1CNCCSc1nnnn1C [CBK270046C] | 90.6
Cc1nn(CC(C)C(=O)NCCN2CCC(C)CC2)c(C)c1Cl (stereo not drawn) [CBK281570] | 94.2
O=C(Cn1cnnn1)NCc1ccccc1 [CBK200255] | 83.6
COc1ccc(-c2cncc(C3CN(Cc4cccc5ncccc45)CCO3)n2)cc1 (stereo not drawn) [CBK285947] | 96.7
CSCCC(NC(=O)NCCc1ccccc1)c1nnc2ccccn12 (stereo not drawn) [CBK304417] | 102
CC(NC(=O)/C(=C\c1ccccc1)NC(=O)c1ccc(Br)o1)C(=O)O (stereo not drawn) [CBK264934] | 107
Cc1[nH]c(=O)[nH]c(=O)c1CCC(=O)OCc1nccn1Cc1ccccc1 [CBK297939] | 82.1
CSCCC(NC(=O)c1c(C)oc2c1CCCC2)C(=O)O (stereo not drawn) [CBK264029] | 82
O=C(CSc1nnc(-c2ccc3c(c2)OCO3)n1-c1ccccc1)c1ccc(Cl)cc1 [CBK263559] | 100
N#CCCN(C(=O)NCc1ccc(F)cc1)C1CCCCC1 [CBK156372] | 86.5
O=C(NC(c1ccccc1)c1ccsc1)C1CCN(CCc2ccccc2)CC1 (stereo not drawn) [CBK148433] | 98.1
Fc1ccc(COc2ccc3ccccc3c2CNc2nn[nH]n2)cc1 [CBK268211] | 86.9
O=C(N[C@H]1CCN2C(=O)c3cc(-c4ccc5c(c4)OCO5)ccc3NC(=O)[C@H]12)C1CCCC1 [CBK289333] | 103
O=C(Nc1nnc(-c2ccc3c(c2)OCCO3)o1)c1ccc2c(c1)OCCO2 [CBK287403] | 84.5
O=C(O)C1C2C=CC3(CN(C4CCCCC4)C(=O)C13)O2 (stereo not drawn) [CBK287248] | 84.8
O=C(Nc1ccccc1C(=O)O)c1ccccc1O [CBK012116] | 89
O=C(c1cccc(F)c1)N1CCCC1c1n[nH]cc1-c1ccncc1 (stereo not drawn) [CBK283437] | 93.2
O=C(CN1CCC2(CC1)CN(CCO)c1ccccc12)Nc1ccc(F)c(Cl)c1 [CBK126761] | 94.6

same assay, conditions: human, hela cells, % viability, bulk resorufin, single well

SMILES | viability at 28.5 h, 10 µM [%]
COCCn1cc(C(=O)N(CC(N)=O)C2CCCC2)c2ccccc21 [CBK305802] | 84.1
